Measured values taken from patent publication US6890946B2, “Use of parthenolide to inhibit cancer” (Indiana University Research and Technology Corporation, priority 1999, dated 2005).
pIC50: −log10 of the molar value. Peptide text beside a SMILES is read from it. * marks the point of attachment. Cbz = O=C(OCc1ccccc1)*

Columns and labels:
[1] = tested on: NF-κB DNA binding activity in MDA-MB-231 cells; assay: EMSA of NF-κB DNA binding activity in MDA-MB-231 cells; settings: parthenolide 1, 2 and 5 μM for 3 h
Method: (§2) Electrophoretic Mobility Shift Assays (EMSAs). […] Cells were collected by trypsinization, washed in phosphate-buffered saline and resuspended in 125 μl of 2 μgs/ml RNase and 300 μl of propidium iodide containing buffer (50 μg/ml propidium iodide, 1 mg/ml sodium citrate, 0.03% NP40). The amount of propidium iodide incorporated was determined by FAScan analysis and the cell cycle distribution was determined using ModFit computer Software. Cell cycle distribution analysis was performed in a single blinded manner. Only diploid cells were considered while calculating the percentage of cells at each phase of cell cycle. • H. Statistical Analysis.

HBL100 cells [2] = assay: MTS cell survival assay, HBL100 cells; format: cell-based; settings: Homo sapiens, HBL-100, HBL100, 18 h, single agent, read-out: Half-maximal growth-inhibitory concentration (IC50)
LxSN11 and IκBαSR cells = assay: flow cytometry cell cycle analysis, all cell types (LxSN11 and IκBαSR clones of MDA-MB-231); settings: 3 nM paclitaxel
Method: (§3) Apoptosis was measured by a histone-ELISA (Roche Diagnostics, Indianapolis, Ind.). […] Histone-DNA complexes in the supernatant were detected by ELISA. For the PARP cleavage assay, 5×10^5 cells were exposed to the indicated drugs for 24 h. […] Cells were collected by trypsinization, washed in phosphate-buffered saline and resuspended in 125 μl of 2 μgs/ml RNase and 300 μl of propidium iodide containing buffer (50 μg/ml propidium iodide, 1 mg/ml sodium citrate, 0.03% NP40). The amount of propidium iodide incorporated was determined by FAScan analysis and the cell cycle distribution was determined using ModFit computer Software. Cell cycle distribution analysis was performed in a single blinded manner. Only diploid cells were considered while calculating the percentage of cells at each phase of cell cycle. • H. Statistical Analysis. In synergy experiments, dose response curves for single agents were generated first.
(§4) Only diploid cells were considered while calculating the percentage of cells in different phases of the cell cycle.

p65−/− fibroblasts = assay: cell cycle progression of p65−/− fibroblasts; settings: for p65−/− G0/G1 / p65−/− S / p65−/− G2/M: 18 h
Method: as §2

MDA-MB-231 cells = assay: MTS cell survival assay, MDA-MB-231 cells; format: cell-based
From the text: (§1) The invention will be further described by reference to the following detailed examples wherein the following materials and methods were employed: • A. Breast Cancer Cell Lines. […] Electrophoretic Mobility Shift Assays (EMSAs). […] Antibodies for supershift assays were purchased from Santa Cruz Biotechnology (CA) or Upstate Biotechnology (NY). • D. Western Blotting. […] IκBα and Mn-SOD antibodies were purchased from Santa Cruz Biotechnology (CA) and Upstate Biotechnology, respectively. • E. Northern Blotting and RNase Protection. […] Twenty μgs of RNA were subjected to RNase protection using the hAPO-5 probe (PharMingen, San Diego, Calif.) as described by the manufacturers. • F. Drug Treatment, Cell Death Assays, Apoptosis Assay and PARP Cleavage. […] Apoptosis was measured by a histone-ELISA (Roche Diagnostics, Indianapolis, Ind.). […] Histone-DNA complexes in the supernatant were detected by ELISA. For the PARP cleavage assay, 5×10^5 cells were exposed to the indicated drugs for 24 h. […] Cells were collected by trypsinization, washed in phosphate-buffered saline and resuspended in 125 μl of 2 μgs/ml RNase and 300 μl of propidium iodide containing buffer (50 μg/ml propidium iodide, 1 mg/ml sodium citrate, 0.03% NP40). The amount of propidium iodide incorporated was determined by FAScan analysis and the cell cycle distribution was determined using ModFit computer Software. […]

[3] = tested on: PARP cleavage in HBL100 cells; assay: PARP cleavage Western blot, HBL100 cells; format: cell-based; settings: HBL100, 24 h, single agents: paclitaxel 1 nM and 5 nM, parthenolide 0.1 μM and 0.5 μM
From the text: as §1

IκBαSR10 cells = assay: cell death ELISA (apoptosis), IκBαSR10 cells; settings: 18 h of paclitaxel treatment, culture supernatants
Method: Apoptosis was measured by ELISA.
(§5) To avoid loss of hypodiploid or other damaged cells during processing, the assay was performed with cell culture supernatants.

HBL100 cells [4] = assay: cell cycle distribution analysis, HBL100 cells; format: cell-based; settings: HBL100 (data not shown)
From the text: as §1

IκBαSR6 cells = assay: flow cytometry cell cycle distribution, IκBαSR6 cells; settings: 5 nM paclitaxel, IκBαSR6, diploid cells only
Method: as §3, §4

LxSN11 cells [5] = assay: cell death ELISA (apoptosis), LxSN11 cells; settings: 18 h of paclitaxel treatment, culture supernatants
Method: Apoptosis was measured by ELISA.
as §5

LxSN11 cells [6] = assay: flow cytometry cell cycle distribution, LxSN11 cells; settings: paclitaxel increased from 3 nM to 5 nM
Method: as §3, §4

wild type fibroblasts = assay: cell cycle progression of wild type fibroblasts; settings: for Wild type G0/G1 / Wild type G2/M / Wild type S: 18 h
Method: as §2

[7] = tested on: NF-κB DNA binding in HUVECs; assay: electromobility gel shift assay of NF-κB DNA binding in HUVECs; settings: three hours, bFGF 50 ng/mL, VEGF 100 ng/mL, rhuMAb VEGF 10 mg/mL
Method: HUVECs were plated on 100 mm plates and harvested in an exponential growth phase. […] The mixture was then electrophoresed. Specific NF-κB binding to DNA was identified by the presence of a signal seen at autoradiography. The protein-DNA complex was slower to migrate whereas unbound DNA and protein migrated off the gel.

breast cancer = settings: cited from earlier work

CC(=O)N[C@@H](CS)C(=O)O [N-acetyl cysteine]
ability to inhibit NF-κB DNA binding activity [1]: Only parthenolide, MG132 and Bay 11-7085 inhibited

CC(=O)CCCCn1c(=O)c2c(ncn2C)n(C)c1=O [pentoxyphylline]
ability to inhibit NF-κB DNA binding activity [1]: Only parthenolide, MG132 and Bay 11-7085 inhibited

CC(=O)O[C@H]1C(=O)[C@@]2(C)[C@H]([C@H](OC(=O)c3ccccc3)[C@]3(O)C[C@H](OC(=O)[C@H](O)[C@@H](NC(=O)c4ccccc4)c4ccccc4)C(C)=C1C3(C)C)[C@]1(OC(C)=O)CO[C@@H]1C[C@@H]2O [paclitaxel]
pIC50 (HBL100 cells [2]): 8.00
hypodiploid cells (LxSN11 and IκBαSR cells): approximately 30%
effect on cell cycle distribution (p65−/− fibroblasts; p65−/− fibroblasts): had no effect
p65−/− G0/G1 (p65−/− fibroblasts; paclitaxel 1 nM): 47 ± 2
p65−/− S (p65−/− fibroblasts; paclitaxel 1 nM): 53 ± 1
p65−/− G0/G1 (p65−/− fibroblasts; paclitaxel 3 nM): 39 ± 6
p65−/− G2/M (p65−/− fibroblasts; paclitaxel 3 nM): 1
p65−/− S (p65−/− fibroblasts; paclitaxel 3 nM): 61 ± 7
p65−/− G0/G1 (p65−/− fibroblasts; paclitaxel 5 nM): 47 ± 2
p65−/− G2/M (p65−/− fibroblasts; paclitaxel 5 nM): 14
p65−/− S (p65−/− fibroblasts; paclitaxel 5 nM): 46 ± 6
p65−/− G0/G1 (p65−/− fibroblasts; paclitaxel 10 nM): 47 ± 2
p65−/− G2/M (p65−/− fibroblasts; paclitaxel 10 nM): 6 ± 4
p65−/− S (p65−/− fibroblasts; paclitaxel 10 nM): 48 ± 6
pIC50 (MDA-MB-231 cells; Homo sapiens, MDA-MB-231, 18 h, MTS, single agent): < 7.52
cells killed (MDA-MB-231 cells; MDA-MB-231, 30 nM or higher concentrations of paclitaxel): 30%
PARP cleavage product [3]: No PARP cleavage product was observed
apoptosis by cell death ELISA (IκBαSR10 cells): substantial increase in apoptotic death
G2/M arrest (HBL100 cells [4]): arrested at G2/M
percentage of cells at G2/M (IκBαSR6 cells): 70.37±14.9%
apoptosis by cell death ELISA (LxSN11 cells [5]): only a marginal increase in apoptosis
cell cycle distribution pattern (LxSN11 cells [6]): did not alter the cell cycle distribution pattern
Wild type G0/G1 (wild type fibroblasts; paclitaxel 1 nM): 68 ± 4
Wild type G2/M (wild type fibroblasts; paclitaxel 1 nM): 17 ± 8
Wild type S (wild type fibroblasts; paclitaxel 1 nM): 20 ± 4
Wild type G0/G1 (wild type fibroblasts; paclitaxel 3 nM): 70 ± 3
Wild type G2/M (wild type fibroblasts; paclitaxel 3 nM): 14 ± 5
Wild type S (wild type fibroblasts; paclitaxel 3 nM): 16 ± 1
Wild type G0/G1 (wild type fibroblasts; paclitaxel 5 nM): 71 ± 3
Wild type G2/M (wild type fibroblasts; paclitaxel 5 nM): 17 ± 6
Wild type S (wild type fibroblasts; paclitaxel 5 nM): 16 ± 4
Wild type G0/G1 (wild type fibroblasts; paclitaxel 10 nM): 73 ± 2
Wild type G2/M (wild type fibroblasts; paclitaxel 10 nM): 16 ± 6
Wild type S (wild type fibroblasts; paclitaxel 10 nM): 15 ± 2
effect on cell cycle distribution (wild type fibroblasts; wild type fibroblasts): had no effect

VEGF
effect on NF-κB DNA binding [7]: did not alter baseline NF-κB DNA binding

COc1cc(/C=C/C(=O)CC(=O)/C=C/c2ccc(O)c(OC)c2)ccc1O [Curcumin]
ability to inhibit NF-κB DNA binding activity [1]: Only parthenolide, MG132 and Bay 11-7085 inhibited

O=C(O[C@@H]1Cc2c(O)cc(O)cc2O[C@@H]1c1cc(O)c(O)c(O)c1)c1cc(O)c(O)c(O)c1 [epigallocatechin gallate]
ability to inhibit NF-κB DNA binding activity [1]: Only parthenolide, MG132 and Bay 11-7085 inhibited

bFGF: basic Fibroblast Growth Factor (R & D Systems) added to stimulate HUVECs
effect on NF-κB DNA binding [7]: induced greater DNA binding than VEGF

CC(C)C[C@@H](C=O)NC(=O)[C@H](CC(C)C)NC(=O)[C@H](CC(C)C)NC(=O)OCc1ccccc1 [MG132] (Cbz-Leu-Leu-Leu-aldehyde)
ability to inhibit NF-κB DNA binding activity [1]: inhibited

rhuMAb VEGF: anti-angiogenic agent provided by Genentech, used in the electromobility gel shift assay
patients with tumor regression (breast cancer): 20%
effect on NF-κB DNA binding [7]: did not alter NF-κB DNA binding

CC(C)(C)c1ccc(S(=O)(=O)/C=C/C#N)cc1 [Bay 11-7085]
ability to inhibit NF-κB DNA binding activity [1]: inhibited
